{"source": "patent US12528767B2", "about": "“HDAC6 inhibitors and uses thereof” (Eikonizo Therapeutics, Inc., priority 2019, dated 2026)", "key": {"[1]": {"test_system": "SH-SY5Y, human neuroblastoma", "settings": "30 µM"}, "[2]": {"test_system": "HEK293, human embryonic kidney", "settings": "30 µM"}, "[3]": {"test": "Cell viability in primary rat dorsal root ganglia (DRG)", "format": "cell-based"}}, "note": "Values joined by “and” are separate entries in the source; they are usually repeats but may differ in a detail not shown here. Identical values can stand only once."}
{"smiles": "CN1CCc2c(c3ccccc3n2Cc2ccc(C(=O)NO)cc2)C1", "note": "[Tubastatin A]", "values": [{"measurement": "Cell viability (percent luminescence ± SD) SH-SY5Y 4 hrs", "setting": "[1]", "value": "105.8 ± 15", "unit": "%"}, {"measurement": "Cell viability (percent luminescence ± SD) SH-SY5Y 24 hrs", "setting": "[1]", "value": "117.3 ± 4.1", "unit": "%"}, {"measurement": "viability", "setting": "[2]", "value": "88.9% and 55.3%"}]}
{"smiles": "O=C(CCCCCCNC(=O)c1cnc(N(c2ccccc2)c2ccccc2)nc1)NO", "note": "[Ricolinostat]", "values": [{"measurement": "CC50 at 72 h", "setting": "[3]", "value": 5.2, "unit": "µM"}]}
